Results taken from patent publication US20260240851A1, “Treatment of Parkinson's Disease in a Patient Using a Glucocerebrosidase Activator” (BIAL - R&D Investments, S.A., priority 2023, published 2026).

Legend:
[1] = LTI-291-004: safety and tolerability; assay type: in vivo, human
Method: This study was a Phase 1B, randomized, double-blind, placebo-controlled, multiple oral dose study of Compound A in 14 subjects (aged 51 to 81 years) with GBA-PD. The objectives of this study were to investigate the safety, tolerability, and PK of multiple once-daily oral administration of Compound A and to explore the accompanying pharmacodynamic changes. Subjects received once-daily oral doses of 10 mg (n=6) or 60 mg (2×30 mg capsules) (n=6) Compound A or placebo (n=2) for 28 consecutive days. PK samples were measured once on Day 7 and Day 14 and 4 times after the last dose on Day 28. Plasma concentrations were summarized at each time point, and no PK parameters were estimated. The PD evaluations included fMRI measures; FDG-PET to determine the metabolic rate of glucose in specific regions of the brain; and functional outcome measures (MDS-UPDRS Part III and the MMSE). GluCer, GluSph, and LacCer and other sphingolipids were measured in PBMCs and plasma as biomarkers of pharmacological effect.

[2] = J. M den Heijer, 2021; cited from earlier work
[3] = LTI-291-003: safety and tolerability; assay type: in vivo, human
Text: This study was a Phase 1b, randomized, double-blind, placebo-controlled, multiple oral dose study of Compound A in 40 subjects (aged 40 to 80 years) with GBA-PD. Approximately 50% of the enrolled subjects had major (loss of 30%-50% total activity) mutations in GCase and 50% had polymorphism mutation (loss of 10%-20% of total activity) mutations in GCase. The objectives of this study were to investigate the safety, tolerability, and PK of multiple once-daily oral administration of Compound A and to explore the accompanying pharmacodynamic changes in subjects with GBA-PD with major and polymorphism mutations. Subjects received once-daily oral doses of 10 mg (n=10), 30 mg (n=10), or 60 mg (2×30 mg capsules) (n=10) Compound A or placebo (n=10) for 28 consecutive days.

[4] = test system: GluCer in plasma and PBMCs; assay: LTI-291-001: GluCer biomarker; assay type: in vivo, human; conditions: single doses, vs placebo
Method: The pharmacodynamic evaluations consisted of a battery of CNS (NeuroCart®) assessments, including Saccadic Eye Movements, Smooth Pursuit Eye Movements, Adaptive Tracking, Body Sway, Visual Verbal Learning Test, and EEG. GluCer was measured in plasma and PBMCs as a biomarker of pharmacological effect.

[5] = after 6 days of dosing with 60 mg, Sinemet portion
Method: This was a Phase 1, non-randomized, open-label, 2-cohort, cross-over, DDI study in healthy male and female subjects.
In Cohort 1, a single oral dose 100 mg/25 mg levodopa-carbidopa (Sinemet®) IR was administered alone on Day 1.

GCase = assay: Phase 2 study: GCase activity in whole blood (dried blood spot, FIA-MS/MS); assay type: in vivo, human; conditions: vs placebo
Method: In addition, the PD biomarkers and GCase activity in whole blood samples are measured at baseline and week 78 (preferably baseline and weeks 4, 26, 52 and 78). This may include biomarkers of lysosomal activity (e.g., glucosylsphingosine (GluSph) and/or glucosylceramide (GluCer)). Methods of measuring lysosomal activity (e.g., GluSph and/or GluCer) are described above. A method of measuring GCase activity is described below. Magnetic resonance imagining (MRI) scans are performed at baseline and week 78 for a cohort of GBA-PD subjects.
The preferred method of measuring GCase activity in whole blood is described below, and also in Totorelli, 2016, which is incorporated herein by reference:
A 5-plex cocktail assay for GCase, acid a-glucosidase (GAA), galactocerebrosidase (GALC), a-galactosidase A (GLA), and a-L-iduronidase (IDUA) activity is prepared. Vials containing the substrate (S) and internal standards (IS) for GCase and GAA are reconstituted with methanol and transferred to the GALC S+IS vial followed by evaporation. The GLA S+IS vial is reconstituted with 1.8 mL of 96 g/L sodium taurocholate in water and then transferred to the dry GALC S+IS vial, which is then heated to 60° C. to dissolve all solids. […]

SMILES: CCCCCO[C@H]1CC[C@H](NC(=O)c2cnn3c(C)cc(C)nc23)CC1 [Compound A, 5,7-dimethyl-N-((1S*,4S)-4-(pentyloxy)cyclohexyl)pyrazolo[1,5-a]pyrimidine-3-carboxamide]
- deaths, SAEs, severe AEs ([1]; 10 or 60 mg daily for 28 days): No deaths, other SAEs, or severe AEs
- relatedness of AEs to study treatment ([1]; in vivo): None of the AEs were considered related to the study treatment
- vital signs, laboratory safety assessments, physical examinations, ECG parameters ([1]; in vivo): no clinically significant safety observations
- safety and tolerability in healthy humans [2]: generally well tolerated
- deaths, SAEs, severe AEs, discontinuations due to AEs ([3]; 10-60 mg daily for 28 days, GBA-PD): No deaths, other SAEs, severe AEs, or discontinuations due to AEs
- vital signs, laboratory safety assessments, ECG parameters ([3]; 28 days): no clinically significant safety observations
- AE back pain, patients ([3]; all Compound A groups): 13.3%
- AE fatigue, patients ([3]; all Compound A groups): 16.7%
- AE headache, subjects ([3]; all Compound A groups): 13.3%
- AE worsening of Parkinson's disease symptoms, subjects ([3]; all Compound A groups): 13.3%
- GluCer variables in PBMCs [4]: Differences between treatment with Compound A and placebo were observed
- GluCer variables in plasma [4]: No significant overall treatment effects
- steady state concentrations of Compound A [5]: appeared not to have been reached
- Mean change in GCase activity in whole blood samples (GCase): higher
